Patent publication US20240246940A1, “HETEROARYL DERIVATIVE COMPOUND AND USE THEREOF” (VORONOI INC., priority 2021, published 2024)

Experiments:
[1] = system: HaCaT cells (EGFR expressing cell line); assay: HaCaT cell proliferation inhibitory activity (CellTiter-Glo, 72 hours); type: cell-based; conditions: Homo sapiens
Experimental: (§1) To evaluate the cell proliferation inhibitory activity of the compound according to the present invention on HER2 and EGFR kinases, the following method was performed using HER2 overexpressing cell lines (SK-BR-3, BT-474, and N-87) and EGFR expressing cell line (HaCaT).
(§2) McCOY'S 5A supplemented with 10% FBS was used for SK-BR-3 cells, RPMI-1640 medium supplemented with 20% FBS was used for BT-474 cancer cells, and RPMI-1640 medium supplemented with 10% FBS was used for N-87 cancer cells. DMEM supplemented with 10% FBS was used for HaCaT cells.
(§3) For SK-BR-3 cells, 5000 cells were aliquoted into each well of a white clear bottom 96 well plate (Corning) 48 hours before treatment with the compounds of Examples. For BT-474 cells, 5000 cells were aliquoted into each well of a white clear bottom 96 well plate (Corning) 48 hours before treatment with the compounds of Examples. For N-87 cells, 5000 cells were aliquoted into each well of a white clear bottom 96 well plate (Corning) 24 hours before treatment with the compounds of Examples. For HaCaT cells, 3000 cells were aliquoted into each well of a white clear bottom 96 well plate (Corning) 24 hours before treatment with the compounds of Examples. For SK-BR-3 cells and BT-474 cells, the compounds of Examples were diluted in dimethyl sulfoxide (three-fold dilution, a total of 11 concentrations) and injected each in an amount of 1 μl to a final concentration of 0.2 nM to 10 μM. For N-87 cells, the compounds of Examples were diluted in dimethyl sulfoxide (five-fold dilution, a total of 11 concentrations) and injected each in an amount of 0.5 μl to a final concentration of […] to 5 μM. For HaCaT cells, the compounds of Examples were diluted in dimethyl sulfoxide (three-fold dilution, a total of 11 concentrations) and injected each in an amount of 0.5 μl to a final concentration of 0.8 nM to 45 μM. For the measurement of living cells, the cells were stored at room temperature for 10 minutes using CellTiter-Glo cell viability reagent (Promega) after a certain period of time (SK-BR-3: 120 hours, BT-474: 120 hours, N-87: 72 hours, and HaCaT: 72 hours) post treatment with the compounds of Examples, and the luminescence intensity thereof was measured using a reader (SynergyNeo, Biotek). Each test was repeated three times.
(§4) The result values were calculated as a cell growth rate (%) compared to those of the control group. A graph was created using the GraphPad Prism version 5.0 program, and GI50 values were calculated.

[2] = system: SK-BR-3 cells (HER2 overexpressing cell line); assay: SK-BR-3 cell proliferation inhibitory activity (CellTiter-Glo, 120 hours); type: cell-based; conditions: Homo sapiens
Experimental: as §1, §2, §3, §4

Structure (SMILES)	GI50 [2] [nM]	GI50 [1] [nM]
C=CC(=O)N1CC(Oc2cc3c(Nc4cc(-c5ccnc6c(NC(=O)C7CC7)snc56)ccc4OC)ncnc3cc2OC)C1 [Example 234, N-(7-(3-((6-((1-acryloylazetidin-3-yl)oxy)-7-methoxyquinazolin-4-yl)amino)-4-methoxyphenyl)isothiazolo[4,3-b]pyridin-3-yl)cyclopropancarboxamide]	150 to 1000	150 to 1000
C=CC(=O)N1C2CCC1CC(Oc1cc3c(Nc4cc(-c5ccco5)ccc4OC)ncnc3cc1OC)C2 (stereo not drawn) [Example 166, 1-(3-((4-((5-(furan-2-yl)-2-methoxyphenyl)amino)-7-methoxy-quinazolin-6-yl)oxy)-8-azabicyclo [3.2.1]octan-8-yl)prop-2-en-1-one]	≤ 150	≤ 150
C=CC(=O)N1CCC(Oc2cc3c(Nc4cc(-c5cnoc5)ccc4OC)ncnc3cc2OC)CC1 [Example 85, 1-(4-((4-((5-(isoxazol-4-yl)-2-methoxyphenyl)amino)-7-methoxy-quinazolin-6-yl)oxy)piperidin-1-yl)prop-2-en-1-one]	≤ 150	≤ 150
C=CC(=O)N1CC(Oc2cc3c(Nc4cc(-c5csc6ccccc56)ccc4OC)ncnc3cc2OC)C1 [Example 41, 1-(3-((4-((5-(benzo[b]thiophen-3-yl)-2-methoxyphenyl)amino)-7-methoxy-quinazolin-6-yl)oxy)azetidin-1-yl)prop-2-en-1-one]	≤ 150	≤ 150
C=CC(=O)N1CCC(Oc2cc3c(Nc4cc(-c5cccc(F)c5F)ccc4OC)ncnc3cc2OC)CC1 [Example 137, 1-(4-((4-((2′,3′-difluoro-4-methoxy-[1,1′-biphenyl]-3-yl)amino)-7-methoxy-quinazolin-6-yl)oxy)piperidin-1-yl)prop-2-en-1-one]	≤ 150	≤ 150
C=CC(=O)N1CC(Oc2cc3c(Nc4cc(-c5cccs5)ccc4OCC)ncnc3cc2OC)C1 [Example 54, 1-(3-((4-((2-ethoxy-5-(thiophen-2-yl)phenyl)amino)-7-methoxy-quinazolin-6-yl)oxy)azetidin-1-yl)prop-2-en-1-one]	≤ 150	≤ 150
C=CC(=O)N1CC(Oc2cc3c(Nc4cc(-c5ccn6ncnc6c5)ccc4OCC)ncnc3cc2OC)C1 [Example 56, 1-(3-((4-((5-([1,2,4]triazolo [1,5-a]pyridin-7-yl)-2-ethoxyphenyl)amino)-7-methoxy-quinazolin-6-yl)oxy)azetidin-1-yl)prop-2-en-1-one]	150 to 1000	> 1000
C=CC(=O)N1CCC(Oc2cc3c(Nc4cc(-c5cccs5)ccc4OC)ncnc3cc2OC)C(F)C1 (stereo not drawn) [Example 144, 1-(3-fluoro-4-((7-methoxy-4-((2-methoxy-5-(thiophen-2-yl)phenyl)amino)quinazolin-6-yl)oxy)piperidin-1-yl)prop-2-en-1-one]	≤ 150	≤ 150
C=CC(=O)N1CCC(Oc2cc3c(Nc4cc(-c5ccnn5C)ccc4OC)ncnc3cc2OC)C1 (stereo not drawn) [Example 61, 1-(3-((7-methoxy-4-((2-methoxy-5-(1-methyl-1H-pyrazol-5-yl)phenyl)amino)quinazolin-6-yl)oxy)pyrrolidin-1-yl)prop-2-en-1-one]	150 to 1000	> 1000
C=CC(=O)N1CC(Oc2cc3c(Nc4cc(-c5ccc6ncnn6c5)ccc4OC)ncnc3cc2OC)C1 [Example 31, 1-(3-((4-((5-([1,2,4]triazolo [1,5-a]pyridin-6-yl)-2-methoxyphenyl)amino)-7-methoxy-quinazolin-6-yl)oxy)azetidin-1-yl)prop-2-en-1-one]	150 to 1000	> 1000
C=CC(=O)N1CCC(Oc2cc3c(Nc4cc(-c5ccco5)ccc4OCC)ncnc3cc2OC)CC1 [Example 118, 1-(4-((4-((2-ethoxy-5-(furan-2-yl)phenyl)amino)-7-methoxy-quinazolin-6-yl)oxy)piperidin-1-yl)prop-2-en-1-one]	≤ 150	≤ 150
C=CC(=O)N1CCC(Oc2cc3c(Nc4cc(-c5ccncc5)ccc4OC)ncnc3cc2OC)CC1 [Example 149, 1-(4-((7-methoxy-4-((2-methoxy-5-(pyridin-4-yl)phenyl)amino)quinazolin-6-yl)oxy)piperidin-1-yl)prop-2-en-1-one]	150 to 1000	150 to 1000
C=CC(=O)N1CC(Oc2cc3c(Nc4cc(-c5cccc(F)c5C)ccc4OC)ncnc3cc2OC)C1 [Example 23, 1-(3-((4-((3′-fluoro-4-methoxy-2′-methyl-[1,1′-biphenyl]-3-yl)amino)-7-methoxy-quinazolin-6-yl)oxy)azetidin-1-yl)prop-2-en-1-one]	150 to 1000	≤ 150
C=CC(=O)N1CCC(Oc2cc3c(Nc4cc(-c5ccc(F)nc5F)ccc4OC)ncnc3cc2OC)CC1 [Example 147, 1-(4-((4-((5-(2,6-difluoropyridin-3-yl)-2-methoxyphenyl)amino)-7-methoxy-quinazolin-6-yl)oxy)piperidin-1-yl)prop-2-en-1-one]	150 to 1000	150 to 1000
C=CC(=O)N1CC[C@@H](Oc2cc3c(Nc4cc(-c5ccco5)ccc4OC)ncnc3cc2OC)[C@H](F)C1 (relative stereo) [Example 179, 1-(trans-3-fluoro-4-((4-((5-(furan-2-yl)-2-methoxyphenyl)amino)-7-methoxy-quinazolin-6-yl)oxy)piperidin-1-yl)prop-2-en-1-one]	≤ 150	≤ 150
C=CC(=O)N1CCC(Oc2cc3c(Nc4cc(-c5cccnc5)ccc4OC)ncnc3cc2OC)CC1 [Example 66, 1-(4-((7-methoxy-4-((2-methoxy-5-(pyridin-3-yl)phenyl)amino)quinazolin-6-yl)oxy)piperidin-1-yl)prop-2-en-1-one]	150 to 1000	150 to 1000

More lines, main results first:

GI50 [2] [nM]	Structure (SMILES)	GI50 [1] [nM]
150 to 1000	C=CC(=O)N1CC(Oc2cc3c(Nc4cc(-c5ccco5)ccc4OC4CCOCC4)ncnc3cc2OC)C1 [Example 249, 1-(3-((4-((5-(furan-2-yl)-2-((tetrahydro-2H-pyran-4-yl)oxy)phenyl)amino)-7-methoxyquinazolin-6-yl)oxy)azetidin-1-yl)prop-2-en-1-one]	≤ 150
150 to 1000	C=CC(=O)Nc1cc2c(Nc3cc(-c4ccoc4C)ccc3OC)ncnc2cc1OC [Example 290, N-(7-methoxy-4-((2-methoxy-5-(2-methylfuran-3-yl)phenyl)amino)quinazolin-6-yl)acrylamide]	≤ 150
≤ 150	C=CC(=O)N1CCC(Nc2cc3c(Nc4cc(-c5ccc(F)cc5F)ccc4OC)ncnc3cc2OCCCN2CCOCC2)CC1 [Example 269, 1-(4-((4-((2′,4′-difluoro-4-methoxy-[1,1′-biphenyl]-3-yl)amino)-7-(3-morpholinopropoxy)quinazolin-6-yl)amino)piperidin-1-yl)prop-2-en-1-one]	≤ 150
≤ 150	C=CC(=O)Nc1cc2c(Nc3cc(-c4ccn5ncnc5c4)ccc3OC)ncnc2cc1OC [Example 287, N-(4-((5-([1,2,4]triazolo[1,5-a]pyridin-7-yl)-2-methoxyphenyl)amino)-7-methoxyquinazolin-6-yl)acrylamide]	> 1000
150 to 1000	C=CC(=O)N1CC(Oc2cc3c(Nc4cc(-c5cccc(NC(=O)N6C(=O)OC[C@@H]6c6ccccc6)c5)ccc4OC)ncnc3cc2OC)C1 [Example 237, (S)-N-(3′-((6-((1-acryloylazetidin-3-yl)oxy)-7-methoxyquinazolin-4-yl)amino)-4′-methoxy-[1,1′-biphenyl]-3-yl)-2-oxo-4-phenyloxazolidin-3-carboxamide]	> 1000
150 to 1000	C=CC(=O)N1CC(Oc2cc3c(Nc4cc(-c5cccc(NC(=O)N6C(=O)OC[C@H]6c6ccccc6)c5)ccc4OC)ncnc3cc2OC)C1 [Example 236, (R)-N-(3′-((6-((1-acryloylazetidin-3-yl)oxy)-7-methoxyquinazolin-4-yl)amino)-4′-methoxy-[1,1′-biphenyl]-3-yl)-2-oxo-4-phenyloxazolidin-3-carboxamide]	> 1000
≤ 150	C=CC(=O)Nc1cc2c(Nc3cc(-c4ccco4)ccc3OC)ncnc2cc1OCCCOC [Example 273, N-(4-((5-(furan-2-yl)-2-methoxyphenyl)amino)-7-(3-methoxypropoxy)quinazolin-6-yl)acrylamide]	≤ 150
≤ 150	C=CC(=O)N1CCC(Oc2cc3c(Nc4cc(-c5ccco5)ccc4OCCOC)ncnc3cc2OC)CC1 [Example 259, 1-(4-((4-((5-(furan-2-yl)-2-(2-methoxyethoxy)phenyl)amino)-7-methoxyquinazolin-6-yl)oxy)piperidin-1-yl)prop-2-en-1-one]	≤ 150
